Experimental data reported in patent US6875569B2, “Modified lepidopteran receptors and hybrid multifunctional proteins for use in transcription and regulation of transgene expression” (The Salk Institute for Biological Studies, priority 1997, dated 2005).
“Also recorded” adds a separate entry of the source. Like-named read-outs stand apart in the source and are kept apart here.

Experiments:
[1] = test system: modified bombyx hormone receptor (VbR); assay type: cell-based, bombyx mori
Description: (§1) Transient transfection experiments in CV-1 cells or 293 cells using modified drosophila ecdysone receptor (VdEcR) or modified bombyx hormone receptor (VbR) with or without dimer partners as described. Luc activity is examined 40 hours after transfection and stimulation with ligand (FIG. 2A). Both receptors are assayed in CV-1 cells with 1 μM MurA and no exogenous dimer partner. […] Both receptors are also assayed in the presence of 5 μg/ml tebufenozide (FIG. 2B). […] Both receptors are also assayed with and without dimer partners. VbR was stimulated with 5 μg/ml tebufenozide and VdEcR was stimulated with 1 μM MurA. […] VbR, with no exogenous dimer partner, has an extremely low base-line which is stimulated 200-300 fold by ligand. Note also from this experiment that VdEcR tends to have a much higher baseline than VbR without dimer partner.
(§2) Tebufenozide is administered to cells co-transfected with nucleic acids encoding receptors: LINX (which encodes the tet-transactivator (TTA)), VbR, TTMT (which encodes the TTA-VbR fusion protein, and TTMT-2V which is like TTMT, but with two VP16 t-domains), to assay for EcRELuc activity (FIG. 2C). Note that teb stimulates VbR, and the TTMT fusions, but has no action on TTA (LINX). The same experiment as that described for 2C, only with a TetO-Luc reporter which responds only to TTA or fusion proteins is summarized in FIG. 2D. […] Note that in this experiment, TTMT and TTMT-2V work better than TTA only (LINX) to stimulate the TetO-luc promoter/reporter. […] An experiment on CV-1 cells transfected with TTMT and two reporters: 6TetO-luc and 4-EcRE-bgalactosidase show both promoters could be simultaneously influenced by the presence or absence of both ligands (FIG. 2E).
Transient transfections are performed by calcium-phosphate coprecipitation employing standard methods (see Sambrook et al., in Molecular Cloning: A Laboratory Manual. Cold Spring Harbor Press, New York, N.Y. (1989)). All tissue culture experiments are performed using DMEM 10% FBS in a 10% CO2 incubator unless otherwise specified. All transfections are performed in triplicate in 24-well Costar plates using CV-1 cells at an approximately 5×10^4 plating density. Immediately following transfection, 1 μm ligand in 20% EtOH/PBS is added to wells. After 40 additional hours of incubation, cells are harvested and luciferase activity measured in an analytical bioluminescence photometer. Cell extracts are simultaneously examined for LacZ activity of the internal control by standard methods. Bar graph levels represent relative luciferase activity after correction using internal control values.

[2] = test system: modified drosophila ecdysone receptor (VdEcR); assay type: cell-based
Description: as §1
(§3) Transient transfections are performed by calcium-phosphate coprecipitation employing standard methods (see Sambrook et al., in Molecular Cloning: A Laboratory Manual. Cold Spring Harbor Press, New York, N.Y. (1989)). All tissue culture experiments are performed using DMEM 10% FBS in a 10% CO2 incubator unless otherwise specified. […] After 40 additional hours of incubation, cells are harvested and luciferase activity measured in an analytical bioluminescence photometer. […]

tet-transactivator (TTA) = target: T1, tet-transactivator (TTA) (Escherichia coli, UniProt P04483); assay: EcRE-Luc reporter co-transfected with LINX; assay type: cell-based; details: FIG. 2C
T1 construct: expressed in transfected cells; host or cells: CV-1 cells
Description: as §2, §3

[3] = test system: TTMT (TTA-VbR fusion protein); assay: EcRE-Luc reporter co-transfected with TTMT; assay type: cell-based; details: FIG. 2C
Description: as §2, §3

[4] = test system: TTMT-2V (TTMT with two VP16 t-domains); assay: EcRE-Luc reporter co-transfected with TTMT-2V; assay type: cell-based; details: FIG. 2C
Description: as §2, §3

VbR = assay: Transgene regulation in stably infected rat fibroblasts (MARSHA reporter, VbR retroviral vector); assay type: cell-based, bombyx mori; details: 0.25 μg/ml teb vs higher levels; VbR-luc clonal fibroblast line and VbR-GH clonal line, FIG. 3; listed as teb
[5] = test system: mammals and other non-insect species; details: extensive testing in animal hosts; previously reported; cited from earlier work

T1 sequence (P04483 whole entry, added parts left off): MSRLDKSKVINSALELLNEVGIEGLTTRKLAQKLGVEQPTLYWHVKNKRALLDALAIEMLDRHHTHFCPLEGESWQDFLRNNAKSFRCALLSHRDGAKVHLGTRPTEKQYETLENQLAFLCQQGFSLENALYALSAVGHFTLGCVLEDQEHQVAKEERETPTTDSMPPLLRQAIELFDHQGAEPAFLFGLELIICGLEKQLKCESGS

Row | SMILES | stimulation of VbR, side-by side comparison ([1]; 1 μM MurA) | response of bR (Luc activity) ([1]; CV-1 cells, 1 μM MurA, no exogenous dimer partner) | dimer partner requirement for VdEcR stimulation ([2]; 1 μM MurA, with and without dimer partners) | stimulation of VbR, side-by side comparison ([1]; 2.5 μg/ml teb) | stimulation of VbR over base-line by ligand ([1]; 5 μg/ml tebufenozide, VbR with no exogenous dimer partner, experiment with and without dimer partners) | effect of ligand on VbR in the presence of exogenous dimer partner ([1]; 5 μg/ml tebufenozide, exogenous dimer partner (RXR, Usp) present, VbR constitutively activated) | induction of Luc activity by VbR ([1]; 5 μg/ml tebufenozide, no exogenous dimer partner, 40 hours after transfection) | EcRE-Luc activity with VbR ([1]; EcRE-Luc reporter, FIG. 2C) | response of drosophila EcR (Luc activity) ([2]; 5 μg/ml tebufenozide) | EcRE-Luc activity with TTA (LINX) (tet-transactivator (TTA)) | EcRE-Luc activity with TTMT [3] | EcRE-Luc activity with TTMT-2V [4] | stimulation of full transgene activity, dose comparison (VbR) | toxicity to mammals [5]
1 | CC(C)CC[C@@H](O)[C@](C)(O)[C@H]1CC[C@@]2(O)C3=CC(=O)[C@]4(O)C[C@@H](O)[C@@H](O)C[C@]4(C)[C@H]3[C@H](O)C[C@]12C [MurA, muristerone A] | effective at stimulating VbR | responds | RXR and Usp are necessary for VdEcR | – | – | – | – | – | – | – | – | – | – | –
2 | CCc1ccc(C(=O)NN(C(=O)c2cc(C)cc(C)c2)C(C)(C)C)cc1 [tebufenozide] | – | – | – | effective at stimulating VbR | 200-300 fold | inhibited by ligand addition | greater than 200 fold | stimulates | does not respond at all, and in fact, decreases slightly; also recorded: responds weakly, if at all | no action | stimulates | stimulates | as effective at stimulating full activity as higher levels; also recorded: as effective as higher levels for stimulating full activity | very low toxicity
